Biological target: T1, stearoyl-CoA desaturase (SCD) (Rattus norvegicus, UniProt P07308)
T1 construct: The microsomes were quickly thawed and added to assay buffer so that a concentration of 0.4 mg/ml was achieved; from tissue
T1 sequence (P07308 1-358): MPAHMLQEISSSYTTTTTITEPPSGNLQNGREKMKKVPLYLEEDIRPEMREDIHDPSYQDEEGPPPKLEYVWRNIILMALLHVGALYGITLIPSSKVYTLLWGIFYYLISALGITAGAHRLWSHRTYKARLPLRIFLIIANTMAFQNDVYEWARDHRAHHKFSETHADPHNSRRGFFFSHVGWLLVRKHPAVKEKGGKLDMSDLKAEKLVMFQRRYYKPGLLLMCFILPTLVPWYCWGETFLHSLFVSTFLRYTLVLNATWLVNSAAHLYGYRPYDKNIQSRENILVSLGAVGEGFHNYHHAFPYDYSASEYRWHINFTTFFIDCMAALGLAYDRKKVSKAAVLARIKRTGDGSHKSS
Assay: SCD assay with rat liver microsomes ([3H]stearoyl CoA, adapted from Talamo and Bloch)
Format: biochemical
Details: [3H]stearoyl CoA substrate
Source text: Male Spraque Dawley Rats were placed on regimented fasting protocol for one week to stimulate SCD enzymatic activity. 48-hour periods were alternated between feeding and fasting to induce and down-regulate SCD activity with SCD activity being induced via carbohydrate rich diet prior to liver perfusion and collection.
The rats were anesthetized with Isoflurane inhalation anesthetic, the liver perfused with cold phosphate buffered saline (PBS), weighed, and chilled in cold homogenization buffer (250 mM sucrose, 10 mM Tris, 1 mM EDTA, pH 7.6.
The livers were finely minced and placed in homogenization tube. 40 mL of homogenization buffer was added to the homogenization tube and the liver homogenized and centrifuged in a pre-chilled […] for 10 min at 4° C.
Following centrifugation, the supernatant was collected and the pellet removed and discarded. The supernatant was centrifuge at 10,000 G for 35 minutes. Following centrifugation, the supernatant was collect and the pellet discarded. The supernatant was then centrifuged in a pre-chilled 45-Ti rotor at 130,000 G (41,000 RPM) for 90 minutes at 4° C.
The supernatant was then aspirated off and the collected microsomal pellet washed in 25 mL of Glycerol PBS (1×PBS 7.4, 20% Glycerol) and resuspended in 4-5 volumes of Glycerol PBS.
The protein concentration of the microsomal preparation was determined by BCA assay (Pierce) and the microsomes were aliquoted and stored at −80° C.
Biobeads were ground to a smaller size in a mortar and pestle and resuspended in 3.6% TCA. The beads were then filtered through […] mesh.
SCD was determined in the desaturase assay buffer. This assay buffer contained 0.1 M Tris buffer, pH 7.2, 2 mM NADH, 4.8 mM ATP, 0.5 mM CoA, 4.8 mM MgCl2, and 0.1% BSA.
1 μl of each compound of Formula I was added to an assay plate by a low volume (0.5-10 μL) multichannel pipette. A DMSO control was also prepared. The microsomes were quickly thawed and added to assay buffer so that a concentration of 0.4 mg/ml was achieved (0.2 mg/ml assay final). 50 μl of the microsome suspension in assay buffer was then added into each well in the compound assay plate, the plate was covered, and the microsomes preincubated with the compounds for 30 minutes on the orbital shaker, 50-75 rpm, at room temperature.
The reaction mixtures were then incubated for 45 minutes on the orbital shaker at 50-75 rpm at room temperature.
The reaction was terminated by the addition of 10 μl of 21% trichloroacetic acid (TCA) to the reaction mixture followed incubation on the orbital shaker for 30 minutes at 50-75 rpm at room temperature followed by centrifugation for 5 minutes at 3700 rpm.
50 μl of a 6% Bio-Bead suspension in H2O was added to the reaction mixture and the assay plate was sealed. The Bio-Bead mixture was incubated on the orbital shaker for 1 hour, 100-150 rpm at room temperature, and then the mixture was centrifuged at 2000 g for 5 minutes to pellet the Bio-Beads.
25 μl of the supernatant was harvested from each well and transferred to a detection plate. 100 μl of OptiPhase SuperMix scinitillation cocktail (containing sufficient NaOH to neutralize the TCA) was added and the solutions mixed by vigorous shaking (300-400 rpm) for 5 minutes at room temperature.

[1] = Table 2 (Example 21, procedures of Example 20), rat liver microsomes
[2] = Table 1, rat liver microsomes 0.2 mg/ml assay final, 30 min preincubation, 45 min reaction, room temperature

Row | Compound | IC50 [1] [nM] | IC50 [2] [nM]
1 | COc1ccccc1OCC(=O)Nc1ccc2c(=O)n(Cc3ccc(Cl)c(Cl)c3)cnc2c1 [L, N-{3-[(3,4-dichlorophenyl)methyl]-4-oxo(3-hydroquinazolin-7-yl)}-2-(2-methoxyphenoxy)acetamide] |  | 1440
2 | O=C(CCO)Nc1ccc2ncn(Cc3ccc(Cl)c(Cl)c3)c(=O)c2c1 [compound 95, N-(3-(3,4-dichlorobenzyl)-4-oxo-3,4-dihydroquinazolin-6-yl)-3-hydroxypropanamide] | 12000 | 
3 | O=C(CO)Nc1ccc2ncn(CCCc3ccccc3Cl)c(=O)c2c1 [compound 56, N-(3-(3-(2-chlorophenyl)propyl)-4-oxo-3,4-dihydroquinazolin-6-yl)-2-hydroxyacetamide] | 430 | 
4 | O=C(CO)Nc1ccc2ncn(CCCc3ccccc3)c(=O)c2c1 [compound 27, 2-hydroxy-N-(4-oxo-3-(3-phenylpropyl)-3,4-dihydroquinazolin-6-yl)acetamide] | 4500 | 
5 | O=C(NCc1ccccc1)c1ccc2c(=O)n(Cc3ccc(Cl)c(Cl)c3)cnc2c1 [compound 85, N-benzyl-3-(3,4-dichlorobenzyl)-4-oxo-3,4-dihydroquinazoline-7-carboxamide] | 950 | 
6 | O=C(CO)Nc1ccc2ncn(Cc3ccc(Cl)c(F)c3)c(=O)c2c1 [XCIX, N-{3-[(4-chloro-3-fluorophenyl)methyl]-4-oxo(3-hydroquinazolin-6-yl)}-2-hydroxyacetamide] |  | 1160
7 | CCCCCNC(=O)Nc1ccc2ncn(Cc3ccc(Cl)c(Cl)c3)c(=O)c2c1 [IV, N-{3-[(3,4-dichlorophenyl)methyl]-4-oxo(3-hydroquinazolin-6-yl)}(pentylamino)carboxamide] |  | 3590
8 | CC(=O)OCC(=O)Nc1ccc2ncn(Cc3ccc(F)c(C(F)(F)F)c3)c(=O)c2c1 [compound 15, 2-(3-(4-fluoro-3-(trifluoromethyl)benzyl)-4-oxo-3,4-dihydroquinazolin-6-ylamino)-2-oxoethyl acetate] | 700 | 
9 | O=C(CO)Nc1ccc2c(=O)n(Cc3ccc4ccccc4c3)cnc2c1 [compound 33, 2-hydroxy-N-(3-(naphthalen-2-ylmethyl)-4-oxo-3,4-dihydroquinazolin-7-yl)acetamide] | 2800 | 
10 | COCCNC(=O)Nc1ccc2ncn(Cc3ccc(Cl)c(Cl)c3)c(=O)c2c1 [XCIII, N-{3-[(3,4-dichlorophenyl)methyl]-4-oxo(3-hydroquinazolin-6-yl)}[(2-methoxyethyl)amino]carboxamide] |  | 6200
11 | O=C(CO)Nc1ccc2c(=O)n(CCCOc3ccccc3F)cnc2c1 [compound 48, N-(3-(3-(2-fluorophenoxy)propyl)-4-oxo-3,4-dihydroquinazolin-7-yl)-2-hydroxyacetamide] | 11000 | 
12 | O=C(COc1ccccc1)Nc1ccc2ncn(Cc3ccc(Br)cc3)c(=O)c2c1 [XXXVIII, N-{3-[(4-bromophenyl)methyl]-4-oxo(3-hydroquinazolin-6-yl)}-2-phenoxyacetamide] |  | 15000
13 | COCCOC(=O)Nc1ccc2c(=O)n(Cc3ccc(Cl)c(Cl)c3)cnc2c1 [LXVII, N-{3-[(3,4-dichlorophenyl)methyl]-4-oxo(3-hydroquinazolin-7-yl)}(2-methoxyethoxy)carboxamide] |  | 880
14 | O=C(CO)Nc1ccc2ncn(CCOc3cc(Cl)ccc3Cl)c(=O)c2c1 [compound 42, N-(3-(2-(2,5-dichlorophenoxy)ethyl)-4-oxo-3,4-dihydroquinazolin-6-yl)-2-hydroxyacetamide] | 290 | 
15 | CC(=O)OCC(=O)Nc1ccc2ncn(Cc3cccc(C(F)(F)F)c3)c(=O)c2c1 [XCIV, [N-(4-oxo-3-{[3-(trifluoromethyl)phenyl]methyl}-3-hydroquinazolin-6-yl)carbamoyl]methyl acetate] |  | 1700
16 | O=C(CO)Nc1ccc2ncn(CCCOc3cc(C(F)(F)F)ccc3Cl)c(=O)c2c1 [compound 66, N-(3-(3-(2-chloro-5-(trifluoromethyl)phenoxy)propyl)-4-oxo-3,4-dihydroquinazolin-6-yl)-2-hydroxyacetamide] | 11000 | 
17 | Cc1ccccc1OCCCn1cnc2ccc(NC(=O)CO)cc2c1=O [compound 53, 2-hydroxy-N-(4-oxo-3-(3-(o-tolyloxy)propyl)-3,4-dihydroquinazolin-6-yl)acetamide] | 100 | 
18 | COCCNC(=O)c1ccc2c(=O)n(Cc3ccc(Cl)c(Cl)c3)cnc2c1 [compound 83, 3-(3,4-dichlorobenzyl)-N-(2-methoxyethyl)-4-oxo-3,4-dihydroquinazoline-7-carboxamide] | 580 | 
19 | O=C(COc1ccccc1)Nc1ccc2ncn(Cc3ccc(F)c(Cl)c3)c(=O)c2c1 [XL, N-{3-[(3-chloro-4-fluorophenyl)methyl]-4-oxo(3-hydroquinazolin-6-yl)}-2-phenoxyacetamide] |  | 9500
20 | O=C(CSc1ccncc1)Nc1ccc2ncn(Cc3ccc(Cl)c(Cl)c3)c(=O)c2c1 [LIV, N-{3-[(3,4-dichlorophenyl)methyl]-4-oxo(3-hydroquinazolin-6-yl)}-2-(4-pyridylthio)acetamide] |  | 2560

More lines, now with the values ahead:

Row | IC50 [1] [nM] | IC50 [2] [nM] | Compound
21 | 180 |  | O=C(Nc1ccc2ncn(CCOc3ccccc3Cl)c(=O)c2c1)OCc1ccccc1 [compound 57, benzyl 3-(2-(2-chlorophenoxy)ethyl)-4-oxo-3,4-dihydroquinazolin-6-ylcarbamate]
22 |  | 470 | O=C(Nc1ccc2ncn(CCc3ccc(Cl)cc3)c(=O)c2c1)OCc1ccccc1 [XVI, N-{3-[2-(4-chlorophenyl)ethyl]-4-oxo(3-hydroquinazolin-6-yl)}(phenylmethoxy)carboxamide]
23 |  | 290 | O=C(Nc1ccc2c(=O)n(Cc3ccc(F)c(Cl)c3)cnc2c1)OCc1ccccc1 [LXXIII, N-{3-[(3-chloro-4-fluorophenyl)methyl]-4-oxo(3-hydroquinazolin-7-yl)}(phenylmethoxy)carboxamide]
24 |  | 300 | O=C(Nc1ccc2ncn(Cc3ccc(F)cc3)c(=O)c2c1)OCc1ccccc1 [XXIV, N-{3-[(4-fluorophenyl)methyl]-4-oxo(3-hydroquinazolin-6-yl)}(phenylmethoxy)carboxamide]
25 |  | 450 | O=C(Nc1ccc2ncn(Cc3ccc(F)c(Cl)c3)c(=O)c2c1)OCc1ccccc1 [XLVI, N-{3-[(3-chloro-4-fluorophenyl)methyl]-4-oxo(3-hydroquinazolin-6-yl)}(phenylmethoxy)carboxamide]
26 | 55 |  | O=C(Nc1ccc2ncn(CCCOc3cc(Cl)ccc3Cl)c(=O)c2c1)OCc1ccccc1 [compound 44, benzyl 3-(3-(2,5-dichlorophenoxy)propyl)-4-oxo-3,4-dihydroquinazolin-6-ylcarbamate]
27 |  | 190 | O=C(Nc1ccc2ncn(Cc3ccc(Cl)cc3)c(=O)c2c1)OCc1ccccc1 [VIII, N-{3-[(4-chlorophenyl)methyl]-4-oxo(3-hydroquinazolin-6-yl)}(phenylmethoxy)carboxamide]
28 |  | 860 | O=C(Nc1ccc2ncn(Cc3ccc4sccc4c3)c(=O)c2c1)OCc1ccccc1 [XLV, N-[3-(benzo[b]thiophen-5-ylmethyl)-4-oxo(3-hydroquinazolin-6-yl)](phenylmethoxy)carboxamide]
29 |  | 1600 | O=C(COc1ccccc1)Nc1ccc2c(=O)n(Cc3ccc(Cl)cc3)cnc2c1 [XLIV, N-{3-[(4-chlorophenyl)methyl]-4-oxo(3-hydroquinazolin-7-yl)}-2-phenoxyacetamide]
30 | 44 |  | Cc1ccccc1OCCCn1cnc2ccc(NC(=O)OCc3ccccc3)cc2c1=O [compound 52, benzyl 4-oxo-3-(3-(o-tolyloxy)propyl)-3,4-dihydroquinazolin-6-ylcarbamate]
